The values that follow come from patent US20100291168A1, “ANTIMICROBIAL FORMULATIONS COMPRISING A COMBINATION OF A PYRIDINE THIOL AND A BIS-QUINOLINIUM SALT” (priority 2007, published 2010).

A word on the MIC: it is the least concentration at which growth counts as inhibited. One may read the MBC as the lowest tested concentration that kills the bacteria rather than only halting them.

One assay relates to P. acnes PRP-007. As to the kind of experiment: (S)DDA. The settings on record: P. acnes PRP-007 (Clin); 50 μg DC or 200 μg ZP per disc. Format: cell-based, Propionibacterium acnes. How it is done: (§1) Some of these strains have known antibiotic resistance.
(§2) All the experiments were conducted in triplicate.

For a further assay, the system named is P. acnes PRP-046. As to the kind of experiment: (S)DDA. It is filed as cell-based, Propionibacterium acnes. The settings on record: P. acnes PRP-046 (resistance None); 50 μg DC or 200 μg ZP per disc. How it is done:
as §1, §2

The test system of assay [1] is P. acnes NCTC 737. As to the kind of experiment: Minimum Inhibitory Concentration (MIC) assay. As to conditions: for MIC: anaerobic, 37° C., 72 hours. It is filed as cell-based, Propionibacterium acnes. As for the experimental part: (§3) The propionibacteria were cultured and maintained on Wilkins-Chalgren Anaerobe Medium (agar and broth) at pH 6.0; all cultures were incubated anaerobically at 37° C. for 72 hours.
(a) Minimum Inhibitory Concentration (MIC) Assay
This is a standard international method for quantitatively assessing the antimicrobial activity of a compound in a liquid medium. The method used a sterile 96-well microtitre plate, capable of holding about 200 μl of liquid per well. The wells contained liquid culture medium and ranges of decreasing concentrations of the relevant test compound in doubling dilutions (eg, 1000, 500, 250, 125 . . . μg/ml, etc. down to 0.49 μg/ml). The culture medium was as described above.
The wells were inoculated with a liquid suspension of freshly grown micro-organism and incubated under the conditions described above. After incubation, the microtitre plate was examined visually (with the aid of a light box) for cloudiness in each well, which would indicate microbial growth. The MIC value was recorded as the lowest concentration of test compound required to inhibit microbial growth, ie, the lowest concentration for which the liquid in the well remained clear.
The assays were conducted in duplicate and included both negative (culture medium with no micro-organisms) and positive (culture medium plus diluting solvent plus micro-organism) controls.
(§4) The following experiments all used P. acnes NCTC 737 as the test organism.
(§5) MIC, MBC and DDA assays, as described above, were carried out using the test compounds (a) dequalinium chloride (DC), dissolved in ethanol and (b) zinc pyrithione (ZP), dissolved in DMSO. Both compounds were sourced from Sigma-Aldrich, UK.
(§6) The general method of Example 1 was repeated using another bis-quinolinium salt, dequalinium iodide (DI), which was also obtained from Sigma-Aldrich, UK. This compound was tested against P. acnes NCTC 737, both alone and in combination with ZP.

The next assay has as its system P. granulosum NCTC 11865. As to the kind of experiment: (S)DDA. It is filed as cell-based, Propionibacterium granulosum. As to conditions: P. granulosum NCTC 11865 (resistance None); 50 μg DC or 200 μg ZP per disc. How it is done:
as §1, §2

The subject of the next assay is P. granulosum PRP-055. As to the kind of experiment: (S)DDA. The settings on record: P. granulosum PRP-055 (resistance None); 50 μg DC or 200 μg ZP per disc. It is filed as cell-based, Propionibacterium granulosum. How it is done:
as §1, §2

Assay [2] relates to Cor. mucifaciens ATCC 700355. Nature of the assay: (S)DDA. It is filed as cell-based, Corynebacterium mucifaciens. As for the experimental part: The activity of a DC/ZP combination was determined, using (S)DDAs, against two further test micro-organisms, namely C. difficile ATCC 7000057 and Cor. mucifaciens ATCC 700355. A DI/ZP combination was also tested against Cor. mucifaciens.
In these tests, 50 μg (for C. difficile) or 200 μg (for Cor. mucifaciens) of the DC was loaded onto each disc. The DI and the ZP were both loaded at 200 μg per disc. All the (S)DDA experiments were conducted in triplicate.

The test system of assay [3] is P. acnes NCTC 737. Nature of the assay: Minimum Bactericidal Concentration (MBC) assay. It is filed as cell-based, Propionibacterium acnes. As to conditions: for MBC: sub-culture after MIC assay. As for the experimental part: as §3
(b) Minimum Bactericidal Concentration (MBC) Assay
This assay, normally carried out after an MIC assay, determines the minimum concentration of a compound that is lethal to the micro-organism being tested.
These samples were then individually sub-cultured on antibiotic-free agar medium, under the incubation conditions described above. Following incubation they were examined visually for bacterial growth.
The ratio of MIC to MBC should ideally be as close to 1 as possible.
as §4, §5, §6

In the next assay the test system is P. acnes PRP-010. It is filed as cell-based, Propionibacterium acnes. As to conditions: P. acnes PRP-010 (MLSK); 50 μg DC or 200 μg ZP per disc. As for the experimental part:
(§7) Other propionibacterial strains were also tested, as described in Example 4 below. These included certain antibiotic resistant propionibacteria, such as the two P. acnes strains designated PRP-010 and PRP-039 which are resistant respectively to macrolides-lincosamides-streptogramins-ketolides (MLSK) and to macrolides-lincosamides-streptogramins (MLS) and tetracycline—in other words, PRP-010 is resistant to erythromycin and clindamycin, and PRP-039 to erythromycin, clindamycin and tetracycline.
as §1, §2

For the next assay, the system named is P. acnes PRP-039. It is filed as cell-based, Propionibacterium acnes. The settings on record: P. acnes PRP-039 (Tet/MLS); 50 μg DC or 200 μg ZP per disc. As for the experimental part:
as §7, §1, §2

Setting [4] is: Table 6, 200 μg DC or 200 μg ZP per disc.

Take `Cc1cc(N)c2ccccc2[n+]1CCCCCCCCCC[n+]1c(C)cc(N)c2ccccc21.[Cl-].[Cl-]` [DC, dequalinium chloride]: the DDA with P. acnes PRP-007 is 18.91 mm; in the assay on P. acnes PRP-046 it was 21.38 mm; in the assay on P. granulosum NCTC 11865, 14.08 mm; in the assay on P. granulosum PRP-055, 29.08 mm; in assay [2] (setting [4]), 17.2 mm; in the assay with P. acnes PRP-010, 17.37 mm. The compound also registered a DDA in the assay on P. acnes PRP-039 of 28.98 mm. Moreover, the “activity of compound alone (MIC, MBC, DDA data)” value in the assay with P. acnes NCTC 737 [1] is given as “active”. The MIC with P. acnes NCTC 737 [1] was 7.8 mg/L. Besides, in the assay with P. acnes NCTC 737 [3], the MIC/MBC ratio is 0.5. Further, the minimum bactericidal concentration (MBC) with P. acnes NCTC 737 [3] turned out to be 15.6 mg/L.

Take zinc pyrithione [ZP]: the DDA in the assay on P. acnes PRP-007 worked out at 10.79 mm; in the assay with P. acnes PRP-046, 35.56 mm; in the assay on P. granulosum NCTC 11865, 23.95 mm; in the assay on P. granulosum PRP-055, 50.05 mm; in [2] (setting [4]), 28.14 mm; in assay [2] (Table 7, 200 μg DI or 200 μg ZP per disc) it was 28.14 mm. In addition, the DDA with P. acnes PRP-010 is listed as 20.96 mm; with P. acnes PRP-039, 29.70 mm. In addition, in the assay with P. acnes NCTC 737 [1], the “activity of compound alone (MIC, MBC, DDA data)” value is “active”. In addition, in the assay on P. acnes NCTC 737 [1], the minimum inhibitory concentration (MIC) worked out at 0.98 mg/L. Moreover, in the assay on P. acnes NCTC 737 [3], the MIC/MBC ratio stood at 0.125. The minimal bactericidal concentration (MBC) in the assay with P. acnes NCTC 737 [3] was determined as 7.8 mg/L.
